{"source": "patent US20210113568A1", "about": "“PREVENTIVE AND/OR THERAPEUTIC AGENT FOR AUTOIMMUNE DISEASE COMPRISING COMPOUND HAVING Btk INHIBITORY ACTIVITY AS ACTIVE INGREDIENT” (ONO PHARMACEUTICAL CO., LTD., priority 2018, published 2021)", "test_system": "human neutrophils", "experiment": "Measurement of activation of human neutrophils (NETs formation, SYTOX Green fluorescence, immune complex stimulation)", "assay_type": "cell-based", "conditions": "Neutrophil, immobilized HSA/anti-HSA immune complex, 1 hour preincubation, 4 hours at 37° C.", "description": "Human serum albumin (HSA) (Sigma) was immobilized on a 96-well plate and anti-HSA antibody (Sigma) was added to form an immune complex. Blocking was performed with 10% fetal bovine serum (FBS), and the plate was then used for neutrophil activation.\nVarious compounds having a Btk inhibitory activity were used as the test compounds. The test compound was dissolved in DMSO and dilution with RPMI 1640 culture medium (10% FBS, contained 1% penicillin/streptomycin) was then performed to prepare a test compound solution with a concentration 11-times that of the final concentration. 180 μL of a culture medium-diluted human neutrophil suspension was added to 20 μL of the 11×-concentration test compound solution, or the medium (1.1% DMSO), and incubation was performed for 1 hour at room temperature.\n20 μL of a 50 μM SYTOX Green solution (Thermo Fisher Scientific Inc.) was then added to the plate bearing the immobilized immune complex; 180 μL (1×10^5 cells/well) of the test compound-treated neutrophil suspension was added; and incubation was carried out for 4 hours at 37° C. and 5% CO2. The relative fluorescence units of the SYTOX Green bound to NETs from the neutrophils were measured using a microplate reader (Molecular Devices) and conditions of an excitation wavelength of 475 nm and a fluorescence wavelength of 523 nm. The percent inhibition (%) for the test compound was calculated using the formula given below. The percent inhibition (%) was graphically plotted using Prism (ver. 5.04, GraphPad Software) and the IC50 value was determined.\nA: relative fluorescence units when the test compound was added B: relative fluorescence units at the time of stimulation C: relative fluorescence units without stimulation"}
{"smiles": "Cc1c(-c2c(F)cc(C(N)=O)c3[nH]c4c(c23)CC[C@H](C(C)(C)O)C4)cccc1-n1c(=O)c2cccc(F)c2n(C)c1=O", "note": "[BMS-986142]", "values": [{"measurement": "IC50", "result": 44, "unit": "nM"}]}
{"smiles": "CC#CC(=O)N1CCC[C@H]1c1nc(-c2ccc(C(=O)Nc3ccccn3)cc2)c2c(N)nccn12", "note": "[acalabrutinib]", "values": [{"measurement": "IC50", "result": 84, "unit": "nM"}]}
{"smiles": "C=CC(=O)N1CCC[C@@H](n2nc(-c3ccc(Oc4ccccc4)cc3)c3c(N)ncnc32)C1", "note": "[ibrutinib]", "values": [{"measurement": "IC50", "result": 3.6, "unit": "nM"}]}
{"smiles": "C[C@H]1CN(C2COC2)CCN1c1ccc(Nc2cc(-c3ccnc(N4CCn5c(cc6c5CC(C)(C)C6)C4=O)c3CO)cn(C)c2=O)nc1", "note": "[fenebrutinib]", "values": [{"measurement": "IC50", "result": 62, "unit": "nM"}]}
{"smiles": "C=CC(=O)N1CCC(CNc2ncnc(N)c2-c2ccc(Oc3ccccc3)cc2)CC1", "note": "[evobrutinib]", "values": [{"measurement": "IC50", "setting": "unit given as M", "result": 57, "unit": "nM"}]}
{"smiles": "CC#CC(=O)N1CC[C@@H](n2c(=O)n(-c3ccc(Oc4ccccc4)cc3)c3c(N)ncnc32)C1", "note": "[tirabrutinib, 6-amino-9-[(3R)-1-(buta-2-ynoyl)pyrrolidin-3-yl]-7-(4-phenoxyphenyl)-7,9-dihydro-8H-purin-8-one]", "values": [{"measurement": "IC50", "result": 22, "unit": "nM"}]}
